Assay results reported in PubChem BioAssay AID463206 (Broad Institute, 2010).
Calls of active or inactive are those of the source.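 How the source made its calls: active means caspase luminescence falls with dose and the half-maximal concentration AC50 from the fitted curve is at or below a set limit; inconclusive means flat fit at 30 to 70% signal loss, or invalid fit; inactive means AC50 above the limit, or signal rises instead.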

system: INS-1E cytokine-induced caspase-3/7, Caspase-Glo luminescence, 48 h; test: suppression of cytokine-driven beta-cell apoptosis – INS-1E rat cells, luminescence, orthogonal assay for beta-cell apoptosis protection project, dose response (AID 463206)

Structure (SMILES)	AC50
CCc1ccc2c(c1)C1(C(=O)N2)N2CCCC2C(C(=O)c2ccc3ccccc3c2)C12C(=O)Nc1ccccc12 (stereo not drawn)	> 26 µM (inactive)
c1ccc(-c2nc(NCc3ccco3)c3ccccc3n2)nc1	> 26 µM (inactive)
N#CC(c1ccc(Cl)cc1)c1ccc2c(C(F)(F)F)cc(C(F)(F)F)nc2n1 (stereo not drawn)	> 26 µM (inactive)
Cc1ccccc1Nc1c(-c2ccccn2)nc2c(C)cccn12	> 26 µM (inactive)
Brc1ccccc1CN1CCN(Cc2c[nH]c3ccccc23)CC1	> 26 µM (inactive)
Cc1ccc(NC(=O)NCC2CCN(Cc3cccc(Cl)c3)CC2)cc1Cl	> 26 µM (inactive)
CCCC[C@@H](CN[C@H](C)CNC)NCC1CCC(C(C)(C)C)CC1 (stereo partly drawn)	25.6 µM
Cc1cc(C(=O)NC2CCCc3c2cnn3-c2cccc(C)c2C)n(C)n1 (stereo not drawn)	> 26 µM (inactive)
CC(C)(C)CN1CCC(Oc2cccc(C(=O)NCCCOc3cccnc3)c2)CC1	> 26 µM (inactive)
Cc1cc(C)nc(N/N=C/c2cc(Br)ccc2O)n1	> 26 µM (inactive)
Cc1cccc(CNc2ncnc3ccc(-c4ccc5c(c4)OCCO5)cc23)c1	> 26 µM (inactive)
N=c1c2c(n(Cc3cccc(Cl)c3)c3c1CCC3)CCCC2	> 26 µM (inactive)
C(=N\Nc1nncc2ccccc12)/c1ccccn1	> 26 µM (inactive)
CCc1ccc(C2CC(c3cccc(Cl)c3)n3nc(N)nc3N2)cc1 (stereo not drawn)	> 12 µM (inactive)
O=C(Nc1ccc(F)cc1F)N1CCCN(CCOc2ccccc2)CC1	> 26 µM (inactive)
Clc1cccc(N=C2NN=C(c3ccc4c(c3)OCCO4)CS2)c1	> 26 µM (inactive)
Cc1ccc(S(=O)(=O)CC2CSc3nc4ccccc4n32)cc1 (stereo not drawn)	> 12 µM (inactive)
CCOC(=O)c1c(NC(=O)C[n+]2ccc(Cc3ccccc3)cc2)sc(C)c1C	> 26 µM (inactive)
CC[n+]1ccc(/C=C/c2c[nH]c3ccccc23)cc1	> 26 µM (inactive)
Nc1nonc1-n1nnc(C(=O)N/N=C/c2cc(Br)ccc2O)c1CSC1=NCCS1	> 26 µM (inactive)
CCCCCCc1cc2cc(C(=O)Nc3ccccc3)c(=O)oc2cc1O	> 26 µM (inactive)
Cc1ccc(C(=O)OCn2ncc(Cl)c(Cl)c2=O)cc1	> 26 µM (inactive)
Cc1ccc(S(=O)(=O)/N=C2/C=C(Sc3ncn[nH]3)C(=O)c3ccccc32)cc1	> 26 µM (inactive)
CC(=O)CSc1ccc(-c2nc3ccccc3[nH]2)cn1	> 26 µM (inactive)

Structure (SMILES)	AC50
CCCCN(C)CCNC(=O)c1cc2c(-c3ccccc3F)nn(C)c2s1	> 12 µM (inactive)
Cc1cc(C)n(-c2nc(NCCN(C)C)c3c4c(sc3n2)CCCC4)n1	13.1 µM
OCCN1CCN(C2Cc3cc(Cl)ccc3Sc3ccc(Cl)cc32)CC1 (stereo not drawn) (tested in a mixture with another compound)	> 26 µM (inactive)
C=C1C(O)[C@@H]2O[C@]3(CC[C@H](/C=C/C(C)[C@@H]4CC(C)=CC5(O[C@H](C[C@@](C)(O)CO)CCC5O)O4)O3)CC[C@H]2O[C@@H]1C(O)CC(C)[C@H]1OC2(CCCCO2)CCC1C (stereo partly drawn)	3.84 µM
COC(=O)c1nc(-c2ccc3c(n2)C(=O)C(N)=C(OC)C3=O)c(N)c(-c2ccc(OC)c(OC)c2O)c1C	> 26 µM (inactive)
CCOc1cc(C)c(S(=O)(=O)Nc2ccc3cn[nH]c3c2)cc1C	> 12 µM (inactive)
CN(Cc1cccnc1)C(=O)c1cc(COc2ccc3ncccc3c2)on1	> 26 µM (inactive)
Cc1ccc(NS(=O)(=O)c2ccc(Cl)c(NC(=S)NC(=O)C3CCCCC3)c2)cc1Cl	> 26 µM (inactive)
COc1cc(OC)c2cc(C(=O)N/N=C/c3ccccc3O)[nH]c2c1	> 26 µM (inactive)
COc1ccc2c(c1OC)C(=O)OC2Nc1nc(-c2ccccc2)cs1 (stereo not drawn)	16.1 µM
Cc1ccc(-c2csc(NC(=O)c3c(C)noc3C)n2)s1	> 26 µM (inactive)
c1ccc(/N=C2\N=C(Nc3ccccn3)c3ccccc32)nc1	> 26 µM (inactive)
COc1ccc(C(C)NCCC(c2ccc(OC(C)C)cc2)c2ccccc2OC)cc1 (stereo not drawn)	> 26 µM (inactive)
CCOc1ccc(N=Cc2c(C)[nH]n(-c3nc4ccccc4[nH]3)c2=O)cc1	> 26 µM (inactive)
COC(=O)c1c(C)oc2ccc(N(C(=O)c3ccncc3)S(=O)(=O)c3ccc4ccccc4c3)cc12	> 26 µM (inactive)
CCCCCCCCCCn1ccc(=N)cc1	> 26 µM (inactive)
Cc1ccc2[nH]cc(/C=C/c3cc[n+](C)cc3)c2c1	> 26 µM (inactive)
COc1ccccc1NCC(=O)N1CCN(S(=O)(=O)c2ccccc2)CC1	> 26 µM (inactive)
COc1ccc(/C=N/Nc2cc(C)nc3ccc(Br)cc23)cc1	> 26 µM (inactive)
CCC(CO)Oc1cc(NCc2ccc(C(C)(C)C)cc2)c2ncn(C(C)C)c2c1 (stereo not drawn)	> 26 µM (inactive)
COc1ccc(-n2c(-c3ccc(Br)cc3)c[n+]3c2CCc2ccccc2-3)cc1	> 26 µM (inactive)
CCCCNc1c(-c2ccc(SC3CCCCC3)cc2)nc2ccccn12	> 26 µM (inactive)
Cn1c(=O)[nH]c(=O)c2c1nc([N+](=O)[O-])n2Cc1ccccc1	> 26 µM (inactive)
Cc1ccccc1C(=O)N1CCN(c2ccc(NC(=O)c3cccnc3)cc2)CC1	> 26 µM (inactive)

Structure (SMILES)	AC50
Nc1c(C(=O)Nc2ccc(S(=O)(=O)N3CCCC3)cc2)sc2nc3cc4c(cc3cc12)CCC4	> 26 µM (inactive)
Cc1cc2nc(-c3ccc(NC(=O)c4cccnc4)cc3)oc2cc1C	> 26 µM (inactive)
O=C1C(=O)c2ccc(-c3ccccc3)cc2-c2ccccc21	> 26 µM (inactive)
c1ccc(-c2cc(-c3ccccc3)[n+](-c3ccccc3)c(-c3ccccc3)c2)cc1	> 26 µM (inactive)
C/C(=N\NC(=O)c1ccc(Cl)c(Cl)c1)c1ccccn1	> 26 µM (inactive)
COc1ccc(C2=Nn3c([n+](C)c4ccccc43)SC2)cc1	> 26 µM (inactive)
O=C(NNc1ccnc2cc(Cl)ccc12)C1CCCCC1	> 26 µM (inactive)
O=C(c1cc(COc2cccc3cnccc23)on1)N1CCCC(CCCO)C1 (stereo not drawn)	> 26 µM (inactive)
Cc1ccc(N(CC(=O)Nc2cc(C)cc(C)c2)S(=O)(=O)c2c(C)noc2C)cc1	> 26 µM (inactive)
O=C(Cc1ccccc1)N/N=C/c1ccc([N+](=O)[O-])s1	> 26 µM (inactive)
COc1cccc2sc(Nc3nc(-c4ccccn4)cs3)nc12	> 26 µM (inactive)
Cc1ccc(NS(=O)(=O)c2ccc(NC(=O)CN(c3cc([N+](=O)[O-])ccc3C)S(C)(=O)=O)cc2)c(C)c1	> 26 µM (inactive)
Cc1nc(Nc2cnc(/C=C/c3cc(C(=O)Nc4cccc(C(F)(F)F)c4)ccc3C)cn2)cc(N2CCNCC2)n1	> 26 µM (inactive)
CCC1CCCCN1S(=O)(=O)c1ccc(NC(=O)c2nc(S(C)(=O)=O)ncc2Cl)cc1 (stereo not drawn)	> 26 µM (inactive)
CCN1CCN(CCCNC(=O)c2ccc3c(c2)NC(=O)/C(=C\c2cccc(C)c2)S3)CC1	10.3 µM
Cc1ccc2oc(-c3ccc(NC(=O)c4cccnc4)cc3)nc2c1	> 26 µM (inactive)
CCc1cc(SC#N)cc(C)c1NC(=O)CCl	> 26 µM (inactive)
O=C(Nc1ccc([N+](=O)[O-])cc1)Nc1ccc(Cl)cc1F	> 26 µM (inactive)
Cc1nnc(N=c2ssnc2Cl)o1	> 26 µM (inactive)
CCCCC(=O)NC(c1ccccc1OC)c1ccc2cccnc2c1O (stereo not drawn)	> 26 µM (inactive)
O=C(NCc1cccnc1)/C(=C/c1ccc(-c2cccc(Cl)c2)o1)S(=O)(=O)c1ccccc1	> 26 µM (inactive)
CCN(CC)S(=O)(=O)c1ccc(Cl)c(C(=O)Nc2ccc(Cl)cc2[N+](=O)[O-])c1	> 26 µM (inactive)
Cc1ccc(NC2=CC(=O)C(=O)c3ccccc32)c(C)c1	> 26 µM (inactive)
Cn1nc(CC(=O)Nc2ccc3c(c2)OCCO3)c2ccccc2c1=O	> 26 µM (inactive)

Structure (SMILES)	AC50
Cc1cc(C)cc(OCC(O)CN2CCC(CN3C(=O)c4cccc5cccc(c45)C3=O)CC2)c1 (stereo not drawn)	> 26 µM (inactive)
CC1(C)CC(=O)C2=C(C1)OC1=C(C(=O)CC(C)(C)C1)C2c1ccc(O)cc1O	> 26 µM (inactive)
COc1cccc(Cn2c(NCc3ccco3)nc3c2c(=O)n(C)c(=O)n3C)c1	> 26 µM (inactive)
CCCOc1ccc(/C=N/NC(=S)Nc2ccccc2[N+](=O)[O-])c(O)c1	> 26 µM (inactive)
CCCCCCc1cc2cc(C(=O)Nc3cccc(OC)c3)c(=O)oc2cc1O	> 26 µM (inactive)
Cc1ccnc2c1ccc1c(C)ccnc12	> 26 µM (inactive)
C=CC(C)(C)c1c(O)c(CC=C(C)C)c(O)c2c(=O)c3ccc(O)c(O)c3oc12	> 26 µM (inactive)
Cc1cccc2sc(NNC(=O)c3ccc(S(=O)(=O)N4CCCC(C)C4)cc3)nc12 (stereo not drawn)	> 26 µM (inactive)
CC(=O)NC(C)c1cc(Cl)c2cccnc2c1O (stereo not drawn)	> 26 µM (inactive)
CCCCCCCCCCOC(=O)Cn1c(COc2ccccc2C)[n+](C)c2ccccc21	> 26 µM (inactive)
O=C1C=C(Nc2ccc(F)cc2)c2ccccc2C1=O	> 26 µM (inactive)
Cc1cc(Cl)c(S(=O)(=O)N2CCN(c3ccc(F)cc3)CC2)cc1OCC(=O)NC1CCCCC1	> 26 µM (inactive)
O=C(NNC(=O)c1ccccc1OCc1ccc(F)cc1)c1ccccc1O	> 26 µM (inactive)
CC1CCC(C(C)C)C(OC(=O)Cn2c(COc3ccccc3)[n+](C)c3ccccc32)C1 (stereo not drawn)	> 26 µM (inactive)
COc1ccccc1C(=O)Nc1nc(-c2ccc(S(=O)(=O)N3CCOCC3)cc2)cs1	> 26 µM (inactive)
O=c1[nH]c(=O)n(-c2ccc(F)cc2)c2c1C(C(F)(F)F)(C(F)(F)F)N=C(c1ccc(F)cc1)N2	> 26 µM (inactive)
CN(C)c1nc(N/N=C/c2ccccc2O)nc(Nc2ccc(F)cc2)n1	> 26 µM (inactive)
CC(=O)/C=C/n1c(=S)oc2ccccc21	> 26 µM (inactive)
O=C(NCc1cccnc1)/C(=C/c1ccc(-c2ccc(Cl)cc2)o1)S(=O)(=O)c1ccccc1	> 26 µM (inactive)
Cc1ccc(S(=O)(=O)/N=C2\C(=O)c3ccccc3C([O-])=C2n2cc[n+](CCC(C)C)c2)cc1	> 26 µM (inactive)
CCCC12C(=O)C(C)(C(c3ccccc3)=C1c1ccccc1)C1C(=O)N(c3ccc(C)cc3)C(=O)C12 (stereo not drawn)	> 26 µM (inactive)
